Laboratory results published in US20240109900A1, “AZABICYCLIC SHP2 INHIBITORS” (IRBM S.P.A., priority 2021, published 2024).

How the values were obtained:
[1] = molecular target: SHP-2 enzyme (Met1-Leu525) (Homo sapiens (Human), UniProt Q06124); assay: SHP2 inhibition enzymatic assay; assay type: biochemical; settings: 0.5 nM SHP-2 activated by 500 nM IRS1 peptide, 75 μM DiFMUP substrate; read-out: SHP2wt-IC50
Method in brief: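 SHP-2 (Met1-Leu525), 0.5 nM, activated with 500 nM IRS1 bis-phosphopeptide, preincubated 30 min with compounds in HEPES pH 7.2 buffer with 5 mM DTT. 75 μM DiFMUP added for 30 min at room temperature, stopped with bpV; fluorescence read. IC50 from four-parameter logistic fit of % inhibition.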

[2] = tested on: ERK phosphorylation in KYSE-520 cells; assay: Phospho-ERK cellular assay; assay type: cell-based; settings: Homo sapiens, KYSE-520, 2 h, KYSE-520 cells, 2 h at 37° C., phospho-ERK1/2 (Thr202/Tyr204) TR-FRET; read-out: PERK IC50
Method in brief: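 TR-FRET read-out of ERK1/2 Thr202/Tyr204 phosphorylation was taken after overnight antibody incubation at room temperature. Before that, KYSE-520 cells were treated 2 h at 37 °C with compound dilutions and lysed 30 min. Percent inhibition relative to vehicle and cell-free wells was fitted four-parametrically to give IC50.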

Chain of SHP-2 enzyme (Met1-Leu525) (Q06124 1-525): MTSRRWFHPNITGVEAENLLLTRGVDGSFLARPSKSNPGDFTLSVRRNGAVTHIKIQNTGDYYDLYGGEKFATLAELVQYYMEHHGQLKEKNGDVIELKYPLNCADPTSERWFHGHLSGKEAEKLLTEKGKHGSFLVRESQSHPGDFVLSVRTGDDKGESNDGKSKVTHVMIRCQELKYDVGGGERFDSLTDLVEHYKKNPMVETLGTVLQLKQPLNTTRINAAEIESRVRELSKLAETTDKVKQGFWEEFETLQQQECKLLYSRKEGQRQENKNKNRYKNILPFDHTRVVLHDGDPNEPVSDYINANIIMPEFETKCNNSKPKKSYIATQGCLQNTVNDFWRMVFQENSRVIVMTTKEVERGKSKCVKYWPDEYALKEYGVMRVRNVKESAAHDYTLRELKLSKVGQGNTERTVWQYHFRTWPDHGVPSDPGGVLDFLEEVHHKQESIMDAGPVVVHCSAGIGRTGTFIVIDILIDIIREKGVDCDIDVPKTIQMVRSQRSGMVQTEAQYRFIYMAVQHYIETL

Compound | IC50 [1] [nM] | IC50 [2] [nM]
Cc1nc([C@@]2(CN)[C@@H]3CN(c4cnc5c(-c6ccc7nn(C)cc7c6Cl)n[nH]c5n4)C[C@@H]32)cs1 [Example 485, ((1R,5S,6r)-3-(3-(4-chloro-2-methyl-2H-indazol-5-yl)-1H-pyrazolo[3,4-b]pyrazin-6-yl)-6-(2-methylthiazol-4-yl)-3-azabicyclo[3.1.0]hexan-6-yl)methanamine] | < 500 | < 1000
Cc1cc(C2(CN)C3CCN(c4nc5[nH]nc(Sc6ccnc(N)c6Cl)c5nc4CO)CC32)no1 (stereo not shown) [Example 57, (3-((2-amino-3-chloropyridin-4-yl)thio)-6-(7-(aminomethyl)-7-(5-methylisoxazol-3-yl)-3-azabicyclo[4.1.0]heptan-3-yl)-1H-pyrazolo[3,4-b]pyrazin-5-yl)methanol] | < 500 | 1000 to 5000
Cc1nc([C@@]2(CN)[C@@H]3CN(c4cnc5c(-c6ccc7nn(C)cc7c6Cl)n[nH]c5n4)C[C@@H]32)co1 [Example 514, ((1R,5S,6r)-3-(3-(4-chloro-2-methyl-2H-indazol-5-yl)-1H-pyrazolo[3,4-b]pyrazin-6-yl)-6-(2-methyloxazol-4-yl)-3-azabicyclo[3.1.0]hexan-6-yl)methanamine] | < 500 | < 1000
COc1ccc2cc(-c3n[nH]c4nc(N5CC[C@@H]6[C@H](C5)[C@@]6(CN)c5cc(C)on5)cnc34)cnc2c1 [Example 151, ((1S,6R,7S)-3-(3-(7-methoxyquinolin-3-yl)-1H-pyrazolo[3,4-b]pyrazin-6-yl)-7-(5-methylisoxazol-3-yl)-3-azabicyclo[4.1.0]heptan-7-yl)methanamine] | < 500 | < 1000
Cc1cccc([C@@]2(CN)[C@@H]3CCN(c4cnc5c(-c6ccc7nn(C)cc7c6C)n[nH]c5n4)C[C@@H]32)c1F [Example 184, ((1S,6R,7R)-3-(3-(2,4-dimethyl-2H-indazol-5-yl)-1H-pyrazolo[3,4-b]pyrazin-6-yl)-7-(2-fluoro-3-methylphenyl)-3-azabicyclo[4.1.0]heptan-7-yl)methanamine] | < 500 | < 1000
Cn1ccc(-c2nccc(-c3n[nH]c4nc(N5CC[C@@H]6[C@H](C5)[C@@]6(CN)c5ccccc5F)cnc34)c2Cl)n1 [Example 265, ((1S,6R,7R)-3-(3-(3-chloro-2-(1-methyl-1H-pyrazol-3-yl)pyridin-4-yl)-1H-pyrazolo[3,4-b]pyrazin-6-yl)-7-(2-fluorophenyl)-3-azabicyclo[4.1.0]heptan-7-yl)methanamine] | < 500 | < 1000
NC[C@]1(c2ccccc2)[C@@H]2CN(c3cnc4c(-c5ccc(F)c6ncccc56)n[nH]c4n3)C[C@@H]21 [Example 510, ((1R,5S,6s)-3-(3-(8-fluoroquinolin-5-yl)-1H-pyrazolo[3,4-b]pyrazin-6-yl)-6-phenyl-3-azabicyclo[3.1.0]hexan-6-yl)methanamine] | < 500 | < 1000
NC[C@]1(c2ccccc2F)[C@@H]2CCN(c3cnc4c(-c5ccc6ccncc6c5)n[nH]c4n3)C[C@@H]21 [Example 248, ((1S,6R,7R)-7-(2-fluorophenyl)-3-(3-(isoquinolin-7-yl)-1H-pyrazolo[3,4-b]pyrazin-6-yl)-3-azabicyclo[4.1.0]heptan-7-yl)methanamine] | < 500 | < 1000
NC[C@]1(c2ccccc2F)[C@@H]2CCN(c3cnc4c(-c5ccc(N6CCCC6=O)cc5Cl)n[nH]c4n3)C[C@@H]21 [Example 326, 1-(4-(6-((1S,6R,7R)-7-(aminomethyl)-7-(2-fluorophenyl)-3-azabicyclo[4.1.0]heptan-3-yl)-1H-pyrazolo[3,4-b]pyrazin-3-yl)-3-chlorophenyl)pyrrolidin-2-one] | < 500 | < 1000
NC[C@]1(c2ccccc2F)[C@@H]2CCN(c3cnc4nc(Sc5ccncc5)ccc4n3)C[C@@H]21 [Example 407, ((1S,6R,7R)-7-(2-fluorophenyl)-3-(6-(pyridin-4-ylthio)pyrido[2,3-b]pyrazin-2-yl)-3-azabicyclo[4.1.0]heptan-7-yl)methanamine] | < 500 | < 1000
Cc1cc(-c2n[nH]c3nc(N4CC[C@@H]5[C@H](C4)[C@@]5(CN)c4ccccc4F)cnc23)cc2cccnc12 [Example 173, ((1S,6R,7R)-7-(2-fluorophenyl)-3-(3-(8-methylquinolin-6-yl)-1H-pyrazolo[3,4-b]pyrazin-6-yl)-3-azabicyclo[4.1.0]heptan-7-yl)methanamine] | < 500 | < 1000
Cc1csc(C2(CN)C3CCN(c4cnc5c(-c6cccnc6C(F)(F)F)n[nH]c5n4)CC32)n1 (stereo not shown) [Example 90, (7-(4-methylthiazol-2-yl)-3-(3-(2-(trifluoromethyl)pyridin-3-yl)-1H-pyrazolo[3,4-b]pyrazin-6-yl)-3-azabicyclo[4.1.0]heptan-7-yl)methanamine] | < 500 | < 1000
Cc1cc([C@@]2(CN)[C@@H]3CCN(c4cnc5c(-c6ccnc7cccc(F)c67)n[nH]c5n4)C[C@@H]32)no1 [Example 41, ((1S,6R,7S)-3-(3-(5-fluoroquinolin-4-yl)-1H-pyrazolo[3,4-b]pyrazin-6-yl)-7-(5-methylisoxazol-3-yl)-3-azabicyclo[4.1.0]heptan-7-yl)methanamine] | < 500 | < 1000
COc1cnc2ccc(-c3n[nH]c4nc(N5CC[C@@H]6[C@H](C5)[C@@]6(CN)c5cc(C)on5)cnc34)c(Cl)c2n1 [Example 112, ((1S,6R,7S)-3-(3-(5-chloro-3-methoxyquinoxalin-6-yl)-1H-pyrazolo[3,4-b]pyrazin-6-yl)-7-(5-methylisoxazol-3-yl)-3-azabicyclo[4.1.0]heptan-7-yl)methanamine] | < 500 | < 1000
NC[C@]1(c2ccccc2F)[C@@H]2CCN(c3cnc4c(-c5ccc6cc[nH]c(=O)c6c5)n[nH]c4n3)C[C@@H]21 [Example 294, 7-(6-((1S,6R,7R)-7-(aminomethyl)-7-(2-fluorophenyl)-3-azabicyclo[4.1.0]heptan-3-yl)-1H-pyrazolo[3,4-b]pyrazin-3-yl)isoquinolin-1(2H)-one] | < 500 | < 1000
Cc1cc([C@@]2(CN)[C@@H]3CCN(c4cnc5c(-c6ccc7nn(C)c(C)c7c6Cl)n[nH]c5n4)C[C@@H]32)no1 [Example 108, ((1S,6R,7S)-3-(3-(4-chloro-2,3-dimethyl-2H-indazol-5-yl)-1H-pyrazolo[3,4-b]pyrazin-6-yl)-7-(5-methylisoxazol-3-yl)-3-azabicyclo[4.1.0]heptan-7-yl)methanamine] | < 500 | < 1000
Cc1nccc(Sc2cnc(N3CC[C@@H]4[C@H](C3)[C@@]4(CN)c3ccccc3F)cn2)c1F [Example 423, ((1S,6R,7R)-3-(5-((3-fluoro-2-methylpyridin-4-yl)thio)pyrazin-2-yl)-7-(2-fluorophenyl)-3-azabicyclo[4.1.0]heptan-7-yl)methanamine] | < 500 | > 5000
Cc1nc(N2CCC3C(C2)C3(CN)c2ccsc2)c(CO)nc1-c1cccc(Cl)c1Cl (stereo not shown) [Example 1, [3-[7-(aminomethyl)-7-(thiophen-3-yl)-3-azabicyclo[4.1.0]heptan-3-yl]-6-(2,3-dichlorophenyl)-5-methylpyrazin-2-yl]methanol] | < 500 | > 5000
COc1ccc2ncccc2c1-c1n[nH]c2nc(N3CC[C@@H]4[C@H](C3)[C@@]4(CN)c3cc(C)on3)cnc12 [Example 115, ((1S,6R,7S)-3-(3-(6-methoxyquinolin-5-yl)-1H-pyrazolo[3,4-b]pyrazin-6-yl)-7-(5-methylisoxazol-3-yl)-3-azabicyclo[4.1.0]heptan-7-yl)methanamine] | 500 to 3000 | < 1000
NC[C@]1(c2ccccc2F)[C@@H]2CCN(c3cnc4c(-c5cc(F)c(O)c(F)c5)n[nH]c4n3)C[C@@H]21 [Example 322, 4-(6-((1S,6R,7R)-7-(aminomethyl)-7-(2-fluorophenyl)-3-azabicyclo[4.1.0]heptan-3-yl)-1H-pyrazolo[3,4-b]pyrazin-3-yl)-2,6-difluorophenol] | < 500 | < 1000
Cc1c(-c2n[nH]c3nc(N4CC[C@@H]5[C@H](C4)[C@@]5(CN)c4ccccc4F)cnc23)ccc2nonc12 [Example 193, ((1S,6R,7R)-7-(2-fluorophenyl)-3-(3-(4-methylbenzo[c][1,2,5]oxadiazol-5-yl)-1H-pyrazolo[3,4-b]pyrazin-6-yl)-3-azabicyclo[4.1.0]heptan-7-yl)methanamine] | < 500 | < 1000
Cn1cnc2ccc(-c3ccc4nc(N5CC[C@@H]6[C@H](C5)[C@@]6(CN)c5ccccc5F)cnc4n3)cc21 [Example 436, ((1S,6R,7R)-7-(2-fluorophenyl)-3-(6-(1-methyl-1H-benzo[d]imidazol-6-yl)pyrido[2,3-b]pyrazin-2-yl)-3-azabicyclo[4.1.0]heptan-7-yl)methanamine] | < 500 | < 1000
NC[C@]1(c2ccccc2F)[C@@H]2CCN(c3cnc4c(-c5ccn6nccc6c5)n[nH]c4n3)C[C@@H]21 [Example 136, ((1S,6R,7R)-7-(2-fluorophenyl)-3-(3-(pyrazolo[1,5-a]pyridin-5-yl)-1H-pyrazolo[3,4-b]pyrazin-6-yl)-3-azabicyclo[4.1.0]heptan-7-yl)methanamine] | < 500 | < 1000
